Measured values published in patent US7662810B2, “2-arylmethylazetidine carbapenem derivatives and preparation thereof” (Korea Research Institute of Chemical Technology, priority 2004, dated 2010).
Values after ≈ are worked out from the molar mass of the structure shown. Where two headings read alike, the source gives them in different places.

Legend:
[1] = tested on: Staphylococcus epidermidis 291; assay: Measurement of Minimum Inhibitory Concentration (MIC), QRS; format: cell-based; settings: QRS, Staphylococcus epidermidis 291
Procedure: (§1) The antibacterial activities of the compounds of the present invention prepared in the above Examples against Gram-positive and Gram-negative bacteria, MRSA and QRS were tested as follows.
(§2) Respective bacterial strains were inoculated into 3 ml of Fleisch extract broth (beef extract 1%, peptone 1%, NaCl 0.3%, Na2HPO4.12H2O 0.2%, pH 7.4-7.5. 10% horse serum was supplemented for Streptococcus pyogenes and S. facium) and cultured on a shaking incubator at 37° C. for 18 hours. About 10^4 CFU/spot of the cultured bacterial strains were inoculated onto Müller-Hinton agar plates containing serial double dilutions (final concentration of 0.002 to 100 μg/ml) of a test compound employing an automatic inoculator (Dynatech, USA), and incubated at 37° C. for 18 hours. When the incubation was completed, the minimum inhibitory concentration was determined. Meropenem (Yuhan corporation, Korea) and vancomycin (Cj Inco., Korea) were used as standard antibiotics, respectively.

[2] = tested on: Staphylococcus epidermidis 178; assay: as above; format: cell-based; settings: QRS, Staphylococcus epidermidis 178
Procedure: as §1, §2

[3] = tested on: Staphylococcus aureus 179; assay: as above; format: cell-based
Procedure: as §1, §2

[4] = tested on: Staphylococcus aureus 241; assay: as above; format: cell-based
Procedure: as §1, §2

[5] = tested on: Staphylococcus aureus 293; assay: as above; format: cell-based; settings: QRS, Staphylococcus aureus 293
Procedure: as §1, §2

[6] = Test of Pharmacokinetics in Animals (rats); format: in vivo; settings: rat, 20 mg/kg
Procedure: The pharmacokinetics of the carbapenem derivatives of the present invention was determined using mice. Each of the compounds of Examples 13 and 14 and meropenem (a positive control) was dissolved in distilled water, and mice were orally administered (PO) or subcutaneously injected (SC) at a dosage of 40 mg/kg body weight (I.C.R mice, weighing 22 to 25 g, 4 mice/group). Blood samples were withdrawn from mice tails using heparinated capillaries at 10 min., 20 min., 30 min., 45 min., 1 hour, 2 hours, 3 hours and 4 hours after the administration.
Standard antibiotic samples were prepared by serial two-fold dilution with control blood. Agar plates were prepared with Müller-Hinton agar medium containing 6.7% sheep blood and 1% Streptococcus pyogenes 77A culture solution, and the diluted standard and blood samples were added to wells formed on the plates. The plate was stored at 4° C. for 1 hour to allow the sample to spread, and incubated at 37° C. for 18 hours. PK (pharmacokinetic) change indicators (AUC, Tmax, Cmax and T1/2) of the test compound concentration remaining in the mouse blood over time were assayed over a set period.
Then, pharmacokinetical assay (amount of medicament administered was 20 mg/kg) was carried out as above using rats.

Escherichia coli 078 [7] = assay: Determination of Protection Dose (PD50) in Infected Animal Model; format: in vivo; settings: mice infected intraperitoneally with Escherichia coli 078; compound injected intraperitoneally 1 hour after the infection
Procedure: (§3) In order to get the lethal dose (LD100) of bacteria, […] pyogenes 77A and Escherichia coli 078 were each diluted by 10^2˜10^9 times. […] For a main experiment, 3 to 4 week-old SPF ICR male mice were divided into 4 groups each of 8 to 10 mice, and fasted for 24 hours before a test. The solutions of […] pyogenes 77A and Escherichia coli 078 were concentrated to a level that was 2 to 10 times of LD100, and the concentrated […] pyogenes 77A solution mixed with 10% horse serum and the concentrated Escherichia coli 078 solution mixed with 5% hog gastric mucin were each injected intraperitoneally into the mice of each group to induce whole body infection.
(§4) The serially diluted solutions of the compound of Example 14 or meropenem (5 different concentrations) were injected intraperitoneally into the infected mice 1 hour after the infection. All of the mice in the control group injected with physiological salt solution died within 48 hours. The number of survived mouse in each group injected with antibacterial material, were counted to determine PD50, and the 95% confidence interval thereof was calculated employing Probit method.

[8] = tested on: Staphylococcus pyogenes 77A; assay: as above; format: in vivo; settings: mice infected intraperitoneally with Staphylococcus pyogenes 77A; compound injected intraperitoneally 1 hour after the infection
Procedure: as §3, §4

Escherichia coli 078 [9] = assay: Measurement of Minimum Inhibitory Concentration (MIC); format: cell-based
Procedure: as §1, §2

Escherichia coli DC 0 = assay: as above; format: cell-based
Procedure: as §1, §2

[10] = tested on: Staphylococcus aureus 503; assay: as above; format: cell-based
Procedure: as §1, §2

[11] = tested on: Salmonella typhimurium 179; assay: as above; format: cell-based; settings: Salmonella typhimurium 179
Procedure: as §1, §2

[12] = tested on: Staphylococcus aureus 285; assay: as above; format: cell-based
Procedure: as §1, §2

[13] = tested on: Staphylococcus faecium MD 8b; assay: as above; format: cell-based; settings: Staphylococcus faecium MD 8b
Procedure: as §1, §2

[14] = tested on: Klebsiella aerogenes 1522 E; assay: as above; format: cell-based
Procedure: as §1, §2

[15] = tested on: Staphylococcus pyogenes 308A; assay: as above; format: cell-based; settings: Staphylococcus pyogenes 308A
Procedure: as §1, §2

Escherichia coli 1507 E = assay: as above; format: cell-based
Procedure: as §1, §2

[16] = tested on: Klebsiella oxytoca 1082 E; assay: as above; format: cell-based
Procedure: as §1, §2

Escherichia coli DC 2 = assay: as above; format: cell-based
Procedure: as §1, §2

[17] = tested on: Staphylococcus pyogenes 77A; assay: as above; format: cell-based; settings: Staphylococcus pyogenes 77A
Procedure: as §1, §2

[18] = tested on: Enterobacter cloacae P 99; assay: as above; format: cell-based
Procedure: as §1, §2

Escherichia coli TEM = assay: as above; format: cell-based
Procedure: as §1, §2

[19] = tested on: Enterobacter cloacae 1321 E; assay: as above; format: cell-based
Procedure: as §1, §2

[20] = Test of Pharmacokinetics in Animals (mice); format: in vivo; settings: mouse, 40 mg/kg
Procedure: The pharmacokinetics of the carbapenem derivatives of the present invention was determined using mice. […] Standard antibiotic samples were prepared by serial two-fold dilution with control blood. […] PK (pharmacokinetic) change indicators (AUC, Tmax, Cmax and T1/2) of the test compound concentration remaining in the mouse blood over time were assayed over a set period.

[21] = Staphylococcus aureus, read-out: MIC

COc1ccc(CN2CC(SC3=C(C(=O)[O-])N4C(=O)[C@H]([C@@H](C)O)[C@H]4[C@H]3C)C2)cc1.[K+] [Exam. 14, Potassium(1R,5S,6S)-2-[1-(4-methoxybenzyl)-azetidine-3-yl-thio]-6-[(1R)-1-hydroxylethyl]-1-methylcarbapen-2-em-3-carboxylate] gave an MIC [1] of 0.391 µg/mL, an MIC [2] of 0.391 µg/mL and an MIC ([3]; QRS, Staphylococcus aureus 179) of 0.049 µg/mL. For the same compound, the MIC ([4]; QRS, Staphylococcus aureus 241) was 0.049 µg/mL, the MIC [5] was 0.098 µg/mL and the “AUC, times higher than meropenem” value ([6]; in vivo) was 17 times. For the same compound, the “increase in T1/2 than meropenem” value ([6]; in vivo) was “more than 2 times”, the “AUC (area under blood-medicament concentration curve till 24 hours after administration)” value ([6]; in vivo, po) was 0.33 µg·h/mL and the Cmax ([6]; in vivo, po) was 0.20 µg/mL. For the same compound, the “T1/2 (half time of blood-medicament concentration)” value ([6]; in vivo, po) was 5.07 h, the Tmax ([6]; in vivo, po) was 42.6 min and the “absorption through the oral route” value ([6]; in vivo, po) was “absorbed through the oral route to a significant extent”. The “AUC (area under blood-medicament concentration curve till 24 hours after administration)” value ([6]; in vivo, sc) was 34.58 µg·h/mL, the Cmax ([6]; in vivo, sc) was 35.85 µg/mL and the “T1/2 (half time of blood-medicament concentration)” value ([6]; in vivo, sc) was 0.69 h. It also gave a Tmax ([6]; in vivo, sc) of 22.2 min, a PD50 (Escherichia coli 078 [7]) of 1.44 mg/kg and a PD50 [8] of 3.05 mg/kg. The MIC (Escherichia coli 078 [9]) was 0.013 µg/mL, the MIC (Escherichia coli DC 0) was 0.049 µg/mL and the MIC [10] was 0.025 µg/mL. For the same compound, the MIC [11] was 0.098 µg/mL, the MIC [12] was 0.098 µg/mL and the MIC [13] was 1.563 µg/mL. For the same compound, the MIC [14] was 0.195 µg/mL, the MIC [15] was 2 ng/mL and the MIC (Escherichia coli 1507 E) was 0.098 µg/mL. The MIC [16] was 0.098 µg/mL, the MIC (Escherichia coli DC 2) was 0.049 µg/mL and the MIC [17] was 2 ng/mL. It also gave an MIC [18] of 0.391 µg/mL, an MIC (Escherichia coli TEM; Escherichia coli TEM) of 0.195 µg/mL and an MIC [19] of 0.098 µg/mL. The “AUC, times higher than meropenem” value ([20]; in vivo) was 10 to 12 times, the “increase in T1/2 than meropenem” value ([20]; in vivo) was “more than 2 times” and the “AUC (area under blood-medicament concentration curve till 24 hours from administration)” value ([20]; in vivo, po) was 5.20 µg·h/mL. For the same compound, the Cmax ([20]; in vivo, po) was 2.07 µg/mL, the “T1/2 (half time of blood-medicament concentration)” value ([20]; in vivo, po) was 2.06 h and the Tmax ([20]; in vivo, po) was 26.4 min. For the same compound, the “absorption through the oral route” value ([20]; in vivo, po) was “absorbed through the oral route to significant extents”, the “AUC (area under blood-medicament concentration curve till 24 hours from administration)” value ([20]; in vivo, sc) was 79.66 µg·h/mL and the Cmax ([20]; in vivo, sc) was 69.61 µg/mL. The “T1/2 (half time of blood-medicament concentration)” value ([20]; in vivo, sc) was 0.76 h and the Tmax ([20]; in vivo, sc) was 15 min.
Compound C[C@@H](O)[C@H]1C(=O)N2C(C(=O)O)=C(S[C@@H]3CN[C@H](C(=O)N(C)C)C3)[C@H](C)[C@H]12 [Meropenem, reference compound] has an MIC ([1]; read-out: MIC) of 1.56 µg/mL (≈ 4.08 µM), an MIC ([2]; read-out: MIC) of 0.781 µg/mL (≈ 2.04 µM) and an MIC ([3]; Staphylococcus aureus, 179) of 0.195 µg/mL (≈ 0.509 µM). For the same compound, the MIC ([4]; Staphylococcus aureus, 241) was 0.195 µg/mL (≈ 0.509 µM), the MIC ([5]; read-out: MIC) was 0.781 µg/mL (≈ 2.04 µM) and the AUC ([6]; whole blood, rats, SC, read-out: AUC (area under blood-medicament concentration curve till 24 hours after administration)) was 2050 ng·h/mL. The Cmax ([6]; whole blood, rats, SC, read-out: Cmax) was 3.92 µg/mL, the half-life ([6]; whole blood, rats, SC, read-out: T1/2 (half time of blood-medicament concentration) (converted)) was 18.6 min and the Tmax ([6]; whole blood, rats, SC, read-out: Tmax) was 15 min. For the same compound, the PD50 (Escherichia coli 078 [7]) was 3.31 mg/kg, the PD50 [8] was 9.13 mg/kg and the MIC (Escherichia coli 078 [9]; read-out: MIC) was 0.025 µg/mL (≈ 0.0652 µM). The MIC (Escherichia coli DC 0; DC0, read-out: MIC) was 0.025 µg/mL (≈ 0.0652 µM), the MIC ([10]; read-out: MIC) was 0.049 µg/mL (≈ 0.128 µM) and the MIC ([11]; Salmonella enterica, read-out: MIC) was 0.049 µg/mL (≈ 0.128 µM). It also gave an MIC ([12]; read-out: MIC) of 0.098 µg/mL (≈ 0.256 µM), an MIC ([13]; MD8B, read-out: MIC) of 6.25 µg/mL (≈ 16.3 µM) and an MIC ([14]; read-out: MIC) of 0.049 µg/mL (≈ 0.128 µM). It also gave an MIC [15, 21] of 7 ng/mL (≈ 0.0183 µM), an MIC (Escherichia coli 1507 E; read-out: MIC) of 0.025 µg/mL (≈ 0.0652 µM) and an MIC ([16]; read-out: MIC) of 0.049 µg/mL (≈ 0.128 µM). It also gave an MIC (Escherichia coli DC 2) of 0.025 µg/mL (≈ 0.0652 µM), an MIC [17, 21] of 4 ng/mL (≈ 0.0104 µM) and an MIC ([18]; P99, read-out: MIC) of 0.049 µg/mL (≈ 0.128 µM). It also gave an MIC (Escherichia coli TEM; Escherichia coli) of 0.025 µg/mL (≈ 0.0652 µM), an MIC ([19]; read-out: MIC) of 0.025 µg/mL (≈ 0.0652 µM) and an AUC ([20]; ICR, whole blood, mice, SC, read-out: AUC (area under blood-medicament concentration curve till 24 hours from administration)) of 7500 ng·h/mL. It also gave a Cmax ([20]; ICR, whole blood, mice, SC, read-out: Cmax) of 13.4 µg/mL, a half-life ([20]; ICR, whole blood, mice, SC, read-out: T1/2 (half time of blood-medicament concentration) (converted)) of 25.8 min and a Tmax ([20]; ICR, whole blood, mice, SC, read-out: Tmax) of 19.8 min.
